Key:
[1] = molecular target: T1, CDK7/Cyclin H/MAT-1 complex (Homo sapiens, UniProt P50613); test: Flint assay, end-point fluorescence (5 nM CDK7/Cyclin H/MAT-1 complex); assay type: biochemical; settings: read-out: CDK7 (5 nM) pIC50 (converted)
T1 construct: Human CDK7 (amino acids 1-346); His6 (N); TEV protease cleavage site (N); made in house; host or cells: baculovirus-SF9 insect cells
In short: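 Trimeric complex of His6-TEV-tagged human CDK7 (1-346), MAT1 (1-309) and cyclin H (1-323), co-expressed in Sf9 cells, at 5 nM final, with substrates and coupling reagents as in the absorbance assay; 24 h reaction. End-point NADH fluorescence decrease (ex 340/em 440 nm); % inhibition versus no-inhibitor and full-inhibition controls, IC50 from four-parameter Hill fit.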

[2] = tested on: RNA polymerase II Serine 5 phosphorylation (Rpb1 CTD), downstream substrate of CDK7; test: Imaging-based cellular RNA PolII Ser5 phosphorylation assay in A549 cells; assay type: cell-based, human; settings: Homo sapiens, A549, 3 h, challenged with compound for 3 hours, read-out: pRNA polII Ser5 (A549) pIC50 (converted)
In short: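 A549 cells seeded 20 h in DMEM with 1% FBS, then exposed to compound for 3 h at 37 °C; fixed, methanol-permeabilized and immunostained for phospho-Rpb1 CTD Ser5, read by automated imaging. Signal normalized to DMSO (high) and 10 μM LDC4297 (low) controls; IC50 from four-parameter fit of % control vs concentration.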

T1 sequence (P50613 whole entry, the tested form may be a part): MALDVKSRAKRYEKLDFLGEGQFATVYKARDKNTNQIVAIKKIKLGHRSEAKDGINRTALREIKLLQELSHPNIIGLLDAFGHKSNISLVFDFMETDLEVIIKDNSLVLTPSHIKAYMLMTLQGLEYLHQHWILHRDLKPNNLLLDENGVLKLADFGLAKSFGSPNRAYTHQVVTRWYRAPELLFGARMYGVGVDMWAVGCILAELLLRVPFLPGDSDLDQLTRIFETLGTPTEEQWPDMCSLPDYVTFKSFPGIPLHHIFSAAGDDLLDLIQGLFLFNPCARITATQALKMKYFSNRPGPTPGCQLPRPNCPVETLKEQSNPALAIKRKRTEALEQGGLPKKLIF
T1 sequence (P51946 whole entry partner, the tested form may be a part): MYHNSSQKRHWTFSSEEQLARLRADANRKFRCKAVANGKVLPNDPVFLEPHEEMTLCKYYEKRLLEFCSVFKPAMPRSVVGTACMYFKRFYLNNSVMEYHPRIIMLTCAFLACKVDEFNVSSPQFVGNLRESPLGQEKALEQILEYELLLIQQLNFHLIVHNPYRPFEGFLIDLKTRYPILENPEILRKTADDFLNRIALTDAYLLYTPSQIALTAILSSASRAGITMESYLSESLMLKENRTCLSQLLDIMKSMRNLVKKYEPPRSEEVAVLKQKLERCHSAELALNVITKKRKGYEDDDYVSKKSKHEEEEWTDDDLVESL
T1 sequence (P51948 whole entry partner, the tested form may be a part): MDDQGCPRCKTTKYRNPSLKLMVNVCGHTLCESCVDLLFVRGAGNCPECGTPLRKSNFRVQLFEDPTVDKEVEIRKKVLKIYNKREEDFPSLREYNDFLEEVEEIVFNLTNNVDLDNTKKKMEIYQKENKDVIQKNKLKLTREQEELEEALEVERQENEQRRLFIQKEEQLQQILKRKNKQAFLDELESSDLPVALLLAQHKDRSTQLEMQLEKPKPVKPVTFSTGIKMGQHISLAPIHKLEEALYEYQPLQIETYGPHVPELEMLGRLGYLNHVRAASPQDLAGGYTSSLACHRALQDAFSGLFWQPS

Compound: C[C@@H]1CN(C(=O)[C@H]2CCN(C)C[C@@H]2c2ccccc2)Cc2nc(NC3CCOCC3)ncc21 (relative stereo) [Compound 188]
- IC50 [1]: 2.82 nM
- IC50 [2]: 105 nM

Compound: C[C@@H]1Cc2cnc(N[C@H]3CCCNC3)nc2CN1C(=O)[C@H]1CCN(C)C[C@@H]1C(F)(F)F (relative stereo) [Compound 144]
- IC50 [1]: 10 nM
- IC50 [2]: 759 nM

Compound: C[C@@H]1Cc2cnc(NCc3ccn(C)n3)nc2CN1C(=O)[C@H]1CCN(C)C[C@@H]1C(F)(F)F (relative stereo) [Compound 143]
- IC50 [1]: 8.91 nM
- IC50 [2]: 2570 nM

Compound: C[C@@H]1Cc2cnc(NCc3ccn(C)n3)nc2CN1C(=O)[C@H]1CCN(C)C[C@@H]1c1ccccc1C(F)F (relative stereo) [Compound 139]
- IC50 [1]: 49 nM
- IC50 [2]: 1260 nM

Compound: C[C@H]1CN(C(=O)[C@H]2CCN(C)C[C@@H]2c2ccccc2)[C@@H](C)c2nc(NC3CCOCC3)ncc21 (relative stereo) [Compound 181]
- IC50 [1]: 105 nM
- IC50 [2]: 2510 nM

Compound: C[C@@H]1Cc2cnc(NCc3ccccc3)nc2CN1C(=O)[C@@H]1CCN(C)C[C@H]1C(F)(F)F (relative stereo) [Compound 141]
- IC50 [1]: 8.51 nM
- IC50 [2]: > 10000 nM

Compound: Cc1cccc([C@H]2CN(C)CC[C@@H]2C(=O)N2Cc3nc(NC4CCOCC4)ncc3C[C@H]2C)c1 (relative stereo) [Compound 134]
- IC50 [1]: 3.16 nM
- IC50 [2]: ~67.6 nM

Compound: C[C@@H]1Cc2cnc(NC3CCOCC3)nc2CN1C(=O)[C@H]1CCN(C)C[C@@H]1c1ccc(Cl)cc1 (relative stereo) [Compound 132]
- IC50 [1]: 3.63 nM
- IC50 [2]: ~81.3 nM

Compound: C[C@@H]1Cc2cnc(NC3CCOCC3)nc2CN1C(=O)[C@H]1CCN(C)C[C@@H]1c1cccc(F)c1 (relative stereo) [Compound 133]
- IC50 [1]: 8.13 nM
- IC50 [2]: 97.7 nM

Compound: CN1CC[C@H](C(=O)N2Cc3nc(NC4CCOCC4)ncc3CC2(C)C)[C@@H](c2ccccc2)C1 (relative stereo) [Compound 189]
- IC50 [1]: 22.4 nM
- IC50 [2]: 1020 nM

Compound: CC1CN(C(=O)[C@H]2CCN(C)C[C@@H]2c2ccccc2)Cc2nc(Nc3cnn(C)c3)ncc21 (mixture of isomers) [Compound 194]
- IC50 [1]: 6.17 nM
- IC50 [2]: 110 nM

Compound: C[C@@H]1Cc2cnc(NC3CCOCC3)nc2[C@H](C)N1C(=O)[C@H]1CCN(C)C[C@@H]1c1ccccc1 (single isomer, unassigned) [Compound 195b]
- IC50 [1]: 4.9 nM
- IC50 [2]: 72.4 nM

Compound: C[C@@H]1CN(C)CC[C@H]1C(=O)N1Cc2nc(NC3CCOCC3)ncc2C[C@H]1C (relative stereo) [Compound 145]
- IC50 [1]: 100 nM
- IC50 [2]: 2950 nM

Compound: CO[C@H]1CC[C@H](Nc2ncc3c(n2)CN(C(=O)[C@@H]2CCN(C)C[C@H]2c2ccnc(C)c2)[C@H](C)C3)CC1 (relative stereo) [Compound 105]
- IC50 [1]: 10 nM
- IC50 [2]: 407 nM

Compound: C[C@@H]1Cc2cnc(NCc3ccn(C)n3)nc2CN1C(=O)[C@H]1CCN(C)C[C@@H]1c1cccc(C(F)(F)F)c1 (relative stereo) [Compound 129]
- IC50 [1]: 4.9 nM
- IC50 [2]: ~41.7 nM

Compound: C[C@@H]1Cc2cnc(N[C@H]3CCOC(C)(C)C3)nc2CN1C(=O)[C@H]1CCN(C)C[C@@H]1c1ccccc1 (relative stereo) [Compound 39]
- IC50 [1]: 5.01 nM
- IC50 [2]: 398 nM

Compound: Cc1cc([C@@H]2CN(C)CC[C@H]2C(=O)N2Cc3nc(NC4CCOCC4)ncc3C[C@H]2C)ccn1 (relative stereo) [Compound 102]
- IC50 [1]: 19.5 nM
- IC50 [2]: 1700 nM

Compound: C[C@@H]1Cc2cnc(N[C@@H]3CCC(=O)N(C)C3)nc2CN1C(=O)[C@H]1CCN(C)C[C@@H]1c1ccccc1 (relative stereo) [Compound 6]
- IC50 [1]: 3.8 nM
- IC50 [2]: 832 nM

Compound: Cc1cccc([C@@H]2CN(C)CC[C@H]2C(=O)N2Cc3nc(NCc4ccn(C)n4)ncc3C[C@H]2C)c1 (relative stereo) [Compound 136]
- IC50 [1]: 15.8 nM
- IC50 [2]: ~27.5 nM

Compound: [2H]C([2H])([2H])N1CC[C@@H](C(=O)N2Cc3nc(NCc4ccn(C)n4)ncc3C[C@H]2C)[C@H](c2cccc(C)c2)C1 (single isomer, unassigned) [Compound 148]
- IC50 [1]: < 2.51 nM
- IC50 [2]: ~26.9 nM

Compound: [2H]C([2H])([2H])N1CC[C@H](C(=O)N2Cc3nc(NCc4ccccc4)ncc3C[C@H]2C)[C@@H](c2ccccc2)C1 (single isomer, unassigned) [Compound 154]
- IC50 [1]: 2.51 nM
- IC50 [2]: 129 nM

Compound: C[C@@H]1Cc2cnc(NC3CCOCC3)nc2CN1C(=O)[C@H]1CCN(C)C[C@@H]1C (relative stereo) [Compound 146]
- IC50 [1]: 17.4 nM
- IC50 [2]: 692 nM
